Key:
[1] = test system: TPM3-NTRK1-positive human colon cancer cell lines KM12; experiment: Growth inhibition test in TPM3-NTRK1 positive KM12 cell lines (CellTiter-Glo, combination index); assay type: cell-based; settings: named kinase inhibitor used in combination with compound A; KM12 cells, 72 hours; CI<1 synergistic
Description: Pharmacological Experiment Example 3: Growth Inhibition Test in TPM3-NTRK1 Positive KM12 Cell Lines
Using KM12 as TPM3-NTRK1-positive human colon cancer cell lines, an effect when 1-{2-[4-(2-amino-5-chloro-3-pyridinyl)phenoxy]-5-pyrimidinyl}-3-[2-(methylsulfonyl)-5-(trifluoromethyl)phenyl]urea (hereinafter sometimes referred to as a compound A) and trametinib, selumetinib, palbociclib, afatinib or erlotinib were combined was evaluated. Cells were subcultured using a DMEM containing a 10 vol % inactivated fetal bovine serum (FBS) and 1 vol % penicillin-streptomycin liquid as a culture medium before they underwent the experiment.
One day before the compound was treated, cells were floated using 0.25% Trypsin-EDTA, and the cells were collected into a centrifuge tube from a culture flask. At room temperature, 180 g of the cells were centrifuged for 3 minutes, and the cell sediment was then suspended in a DMEM culture medium. A part of the cell suspension was collected, the number of cells was counted, and the cells were then suspended in the DMEM culture medium at a cell density of 3.75×10^4 cells/mL to prepare a cell suspension. The cell suspension was inoculated at 80 μL/well in a 96-well tissue culture plate (Asahi Glass Co., Ltd.), and left for 24 hours under 37° C., 5% CO2, and 95% air conditions.
On the day when the compound was treated, 10 mM of each compound (DMSO solution) was serially diluted with DMSO to prepare a diluted solution. The diluted solution of each compound and DMSO were diluted 100-fold in a culture medium to prepare a 10-fold concentration of the treatment solution of each compound and the medium solution. The compound A solution or medium solution prepared above was added at 10 μL/well to wells of a 96-well tissue culture plate in which cells were stationary-cultured for 24 hours. Then, in the same manner, the trametinib, selumetinib, palbociclib, afatinib or erlotinib solution or the medium solution was added at 10 μL/well to wells of the 96-well tissue culture plate. […]
After the stationary culture was completed, a luminescent signal (relative luminescent unit, RLU) of each well was measured by a microplate reader using a CellTiter-Glo Luminescent Cell Viability Assay kit (Promega, G7571). An average value of RLUs of 3 wells of a medium group (a group treated with a medium solution having a compound concentration of zero (0)) was calculated, and a growth inhibition rate in each well was calculated by the following mathematical formula. […]
In order to analyze the combined effect, using a fluorescence intensity, the effective dose (ED)50, ED75, ED90 and ED95 were calculated, and a combination index (CI) described in Advances in enzyme regulation, vol. 22, 1984, pp. 27-55 was calculated for analysis. […]

[2] = test system: ETV6-NTRK3 positive human leukemia cell lines IMS-M2; experiment: Growth inhibition experiment in ETV6-NTRK3 positive IMS-M2 cell lines (combination index); assay type: cell-based; settings: named kinase inhibitor used in combination with compound A; IMS-M2 cells, 72 hours; CI<1 synergistic
Description: Cells were subcultured using an RPMI culture medium containing a 10 vol % FBS and 1 vol % penicillin-streptomycin liquid before they underwent the experiment.
On the day when the compound was treated, cells were collected from a culture flask into a centrifuge tube. At room temperature, 300 g of cells were centrifuged for 3 minutes, and the cell sediment was then suspended in the RPMI culture medium.
The diluted solution of each compound and DMSO were diluted 100-fold in a culture medium to prepare a 10-fold concentration of the treatment solution of each compound and the medium solution.

[3] = test system: KM12-AR (compound A resistant KM12 cell lines); experiment: Growth inhibition test in compound A resistant KM12 cell lines (KM12-AR); assay type: cell-based, human; settings: KM12-AR cells; single treatment
Description: Pharmacological Experiment Example 5: Growth Inhibition Test in Compound a Resistant KM12 Cell Lines
Using KM12 as TPM3-NTRK1-positive human colon cancer cell lines, a strain resistant to the compound A was established. A DMEM (Life technologies, product number: 11965) containing a 10 vol % FBS and 1 vol % penicillin-streptomycin liquid was prepared as a culture medium. The thawed KM12 was suspended in the culture medium. At room temperature, 180 g was centrifuged for 3 minutes, the supernatant was removed by suction, and the cell sediment was then re-suspended in the culture medium, and a total amount of 50 mL was inoculated in a 225 cm^2 flask (Asahi Glass Co., Ltd.). […]
Then, every two or three days, the culture medium was replaced or subcultured. […] The cell sediment was suspended in the DMEM culture medium, a part of the cell suspension was then collected, and the number of viable cells was counted. […]
Using KM12-AR, an effect when the compound A and trametinib, selumetinib, palbociclib, gefitinib, erlotinib, afatinib, lapatinib, neratinib or canertinib were combined was evaluated. […]
On the day when the compound was treated, 10 mM of each compound (DMSO solution) was serially diluted with DMSO to prepare a diluted solution. […] After the compound was added, the growth inhibition rate was calculated in the same method as in Pharmacological Experiment Example 3.

| Structure (SMILES) | CI (median value) [1] | CI (median value) [2] | growth inhibitory effect, treated alone [3] |
| --- | --- | --- | --- |
| CC(=O)Nc1cccc(-n2c(=O)n(C3CC3)c(=O)c3c(Nc4ccc(I)cc4F)n(C)c(=O)c(C)c32)c1 [Trametinib, trametinib] | 0.705 | 0.652 | – |
| CC(=O)c1c(C)c2cnc(Nc3ccc(N4CCNCC4)cn3)nc2n(C2CCCC2)c1=O [Palbociclib, palbociclib] | 0.660 | 0.719 | – |
| CN(C)C/C=C/C(=O)Nc1cc2c(Nc3ccc(F)c(Cl)c3)ncnc2cc1O[C@H]1CCOC1 [Afatinib, afatinib] | 0.861 | 0.869 | – |
| CS(=O)(=O)c1ccc(C(F)(F)F)cc1NC(=O)Nc1cnc(Oc2ccc(-c3cc(Cl)cnc3N)cc2)nc1 [1-{2-[4-(2-amino-5-chloro-3-pyridinyl)phenoxy]-5-pyrimidinyl}-3-[2-(methylsulfonyl)-5-(trifluoromethyl)phenyl]urea] | – | – | no growth inhibitory effect was observed |
| Cn1cnc2c(F)c(Nc3ccc(Br)cc3Cl)c(C(=O)NOCCO)cc21 [Selumetinib, selumetinib] | 0.674 | 0.549 | – |

Reference: patent US20210000830A1, “CANCER TREATMENT METHOD USING Trk INHIBITOR AND KINASE INHIBITOR IN COMBINATION” (ONO PHARMACEUTICAL CO., LTD., priority 2017, published 2021)
